Measured values from ChEMBL document CHEMBL1201862, “PubChem BioAssay data set” (2004).
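Five concentrations, 48 hours, 96-well plates. GI50 marks 50% less growth.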 The source made the active and inactive calls. Cut-off read from the data, not from the text of the source: active = GI50 up to about 1.1 µM and inactive = higher.

What was measured:
Assay in all cases: NCI-60 cell line screen, 48 h
[1] = system: CAKI-1
[2] = system: SK-OV-3
[3] = system: OVCAR-5
[4] = system: UACC-62
[5] = system: DMS-273
[6] = system: SK-MEL-28
[7] = system: SW-620
[8] = system: CCRF-CEM
[9] = system: ACHN
[10] = system: HOP-62
[11] = system: SNB-19
[12] = system: HCC 2998
[13] = system: COLO 205
[14] = system: Malme-3M
[15] = system: UO-31
[16] = system: HT-29
[17] = system: UACC-257
[18] = system: SF-295
[19] = system: MOLT-4
[20] = system: TK-10
[21] = system: DMS-114
[22] = system: HCT-116
[23] = system: A498
[24] = system: M19-MEL
[25] = system: NCI-H226
[26] = system: KM-20L2
[27] = system: SF-268
[28] = system: HOP-18
[29] = system: XF498
[30] = system: EKVX
[31] = system: SNB-75
[32] = system: HOP-92
[33] = system: K562
[34] = system: OVCAR-3
[35] = system: OVCAR-4
[36] = system: SK-MEL-2
[37] = system: SK-MEL-5
[38] = system: SF-539
[39] = system: 786-0
[40] = system: KM12
[41] = system: LOX IMVI
[42] = system: HCT-15
[43] = system: NCI-H522
[44] = system: HL-60
[45] = system: RPMI-8226
[46] = system: SNB-78
[47] = system: U-251
[48] = system: DLD-1
[49] = system: LXFL 529
[50] = system: OVCAR-8
[51] = system: NCI-H460
[52] = system: RXF 393
[53] = system: M14
[54] = system: IGROV-1
[55] = system: A549
[56] = system: NCI-H23
[57] = system: SN12C

`Cn1c(=O)nc2n(-c3ccc(Cl)c(C(F)(F)F)c3)c3ccccc3nc-2c1=O` was tested, and the GI50 [1] was 51.4 µM (inactive), the GI50 [2] was > 100 µM (inactive) and the GI50 [3] was 74.3 µM (inactive). The GI50 [4] was 16.6 µM (inactive), the GI50 [5] was 32.1 µM (inactive) and the GI50 [6] was 65 µM (inactive). For the same molecule, the GI50 [7] was 22.9 µM (inactive), the GI50 [8] was 30.8 µM (inactive) and the GI50 [9] was 27.7 µM (inactive). For the same molecule, the GI50 [10] was 57.9 µM (inactive), the GI50 [11] was 21.9 µM (inactive) and the GI50 [12] was 25.6 µM (inactive). The GI50 [13] was 17.7 µM (inactive), the GI50 [14] was 15 µM (inactive) and the GI50 [15] was > 77.4 µM (inactive). For the same molecule, the GI50 [16] was 24.3 µM (inactive), the GI50 [17] was 17.1 µM (inactive) and the GI50 [18] was 44.2 µM (inactive). The GI50 [19] was 36.7 µM (inactive), the GI50 [20] was > 79.6 µM (inactive) and the GI50 [21] was 16.7 µM (inactive). For the same molecule, the GI50 [22] was 27.2 µM (inactive), the GI50 [23] was > 79.3 µM (inactive) and the GI50 [24] was 13.4 µM (inactive). For the same molecule, the GI50 [25] was > 53.7 µM (inactive), the GI50 [26] was 25.1 µM (inactive) and the GI50 [27] was 35.6 µM (inactive). The GI50 [28] was > 100 µM (inactive), the GI50 [29] was 37.2 µM (inactive) and the GI50 [30] was 35.1 µM (inactive). For the same molecule, the GI50 [31] was 94 µM (inactive), the GI50 [32] was 40.8 µM (inactive) and the GI50 [33] was 35.5 µM (inactive). The GI50 [34] was 14.7 µM (inactive), the GI50 [35] was 22.2 µM (inactive) and the GI50 [36] was 34.7 µM (inactive). For the same molecule, the GI50 [37] was 13.5 µM (inactive), the GI50 [38] was 29 µM (inactive) and the GI50 [39] was 57 µM (inactive). For the same molecule, the GI50 [40] was 32.9 µM (inactive), the GI50 [41] was 35 µM (inactive) and the GI50 [42] was 31.4 µM. For the same molecule, the GI50 [43] was 25.1 µM (inactive), the GI50 [44] was 19.3 µM (inactive) and the GI50 [45] was 33.2 µM (inactive). The GI50 [46] was 53.6 µM (inactive), the GI50 [47] was 40.6 µM (inactive) and the GI50 [48] was 20.1 µM (inactive). For the same molecule, the GI50 [49] was 76.9 µM (inactive), the GI50 [50] was 24.9 µM (inactive) and the GI50 [51] was 30.2 µM (inactive). For the same molecule, the GI50 [52] was 55.7 µM (inactive), the GI50 [53] was 26.1 µM (inactive) and the GI50 [54] was 84.1 µM (inactive). For the same molecule, the GI50 [55] was 25.8 µM (inactive), the GI50 [56] was 29.6 µM (inactive) and the GI50 [57] was 30.9 µM (inactive).
